In US11406103B2, “Sanitizing rinse based on quat-anionic surfactant synergy” (Ecolab USA Inc., priority 2016, dated 2022):
Entries after “also recorded” stand apart in the source; their conditions may differ. Read-outs that look alike come from different tables or passages of the source.

Tests used:
[1] = tested on: Escherichia coli ATCC 11229; experiment: Low temperature warewash sanitizing rinse test; type: cell-based; conditions: anionic surfactant paired with quaternary ammonium compound, in this study
Experimental: The sanitizing efficiency was determined for the experimental formulas of Table 8A-8B using the following procedure: • 1.) Set up low temperature ware wash machine to our specific settings (see 7-cycle procedure) • a. Set water Temperature (120° F.) • b. Check water Hardness (4-6 gpg) • c. Set water flow rate • d. Hand dose in chemistry, no need to set up (50 ppm Quat, 50 ppm Bleach) • e. Watch these variables throughout tests • 2.) Have 10 processed Libby glasses for each tested chemistry run • a. 5 will be unwashed controls • b. 5 will be washed to detect kill • 3.) Have enough sterile tubs to hold glasses—supplied by Micro • a. Max 20 glasses per tub, or 2 runs • 4.) Have enough swabs to collect specimen—supplied by Micro • a. Need 2 per run or 1 swab per 5 glasses • 5.) Have 1 buffer solution tube per 5 glasses, 2 per run • 6.) Have Micro bring in an E. coli suspension • 7.) Get 10 glasses ready in easy reach • 8.) Fill one glass, an inch from the top, with E. coli suspension • a. Start timer for 10 minutes at this point • 9.) Pour E. coli Suspension from first glass into second glass, from second glass into third, and so on • 10.) Dip the top inch of each soiled glass into E. coli suspension to coat rim • 11.) Set glasses upside down in a sterile tub and let dry for 10 minutes • 12.) Swab 5 of the 10 glasses as your test control group • a. […]

Glewwe foam test = type: physicochemical
Experimental: A test was run to determine the foam profiles of the five quat solutions of Example 1. A Glewwe foam apparatus in combination with the following procedure was used for this test. First, each quat was prepared and gently poured into a Glewwe cylinder. Samples tested contained a concentration of 50 ppm of the indicated antimicrobial quats. A ruler was attached to the side of the cylinder, and the solution was level with the bottom of the ruler. The pump was turned on. Foam height was estimated by reading the average level of foaming according to the ruler. Foam height readings were taken versus time with a stopwatch or timer. The pump was turned off and height of the foam was recorded at various times. […] The foam level was read after 15 seconds of agitation and again after 60 seconds of agitation for a given amount of time. A stable foam is defined when the foam remains for several minutes after agitation is stopped. A partially stable foam breaks slowly within a minute. An unstable foam breaks rapidly in less than 15 seconds. A desirable rinse should have unstable foam to no foam. In contrast, antimicrobial hand soap should have stable foam.
The results from the foaming test are shown in FIG. 2, and described in Table 3 below.
Another foam evaluation test was run using the procedure described in Example 2.
The inclusion of additional additives (defoamer and solubilizer/booster, such as Emulsogen) to the Quat-Anionic surfactant pairs were also analyzed, provided in Table 5 below (5A-5B), using the procedure described in Example 2.

[2] = Dynamic surface tension (SITA science line t60, bubble pressure); type: physicochemical
Experimental: The SITA science line t60 measures the dynamic surface tension of liquids up to the semi-static range. Air bubbles are generated from a capillary with known radius. The bubble pressure is measured as a function of bubble life time, which can be correlated to the surface tension according to the Young-Laplace equation. […] The dynamic surface tension behavior of surfactants is particularly important in applications where a quick response of surfactant is required, for example, in short rinse cycles of automated dishwashing.
The SITA science line t60 was calibrated with DI water. […] Following calibration, the SITA was programmed to take readings at the desired time intervals (i.e., 0.3, 1.6, 3.0, 9.1 seconds).
10-15 mL were transferred into 20 mL vials and immersed in a water bath to 25° C.±2° C. The samples were equilibrated for 10-15 minutes. The samples were individually tested. After each sample was tested the SITA's cleaning procedure was run, then the surface tension of DI water was checked to ensure the SITA was adequately clean. If the DI water measurements were not within 72.0±1.0 mN/m, then the cleaning procedure was run again. […]

Row | Compound | antimicrobial synergy with quat, in words [1] | Foaming Profile (Glewwe foam test) | Dynamic Surface Activity [2] | also measured
1 | CCCCCCCCCC(=O)O [Decanoic acid] | best antimicrobial synergy | – | – | –
2 | Didecyl (C10) dimethyl ammonium chloride [Bardac 2250] | – | 3 | 1 | –
3 | Dioctyl (C8) dimethyl ammonium chloride [Bardac LF80] | – | 5 | 5 | foam profile, in words (Glewwe foam test): lowest foam profile; Dynamic surface tension [2]: 69 mN/m; dynamic surface tension / surface activity, in words [2]: least surface active; also recorded: very low surface activity; also recorded: very little surface activity
4 | CCCCCCCC(=O)O [Octanoic acid] | best antimicrobial synergy | – | – | –
5 | Alkyl Benzyl ammonium chloride [Uniquat QAC-50] | – | – | – | Foaming Profile (Glewwe foam test; ranking 1-5, Glewwe Foam Test, 50 ppm Quat, 6psi, 140° F.): 1; Dynamic Surface Activity ([2]; ranking 1-5 among five quats, 100 ppm quat, 75° F.): 3
